According to patent publication US7314726B2, “Beta secretase exosite binding peptides and methods for identifying beta secretase modulators” (Bristol-Myers Squibb Company, priority 2002, dated 2008):
Like-named read-outs stand apart in the source and are kept apart here.

How the values were obtained:
BACE [1] = target: T1, BACE (Homo sapiens, UniProt P56817); experiment: Phage ELISA of phage-displayed peptides on immobilised BACE; assay type: binding; design: The cDNA for the catalytic domain of human BACE (residues 1-460) was PCR-amplified; human IgG1 heavy chain (C, cleaved yes); thrombin cleavage site (C); made in house; host or cells: CHO DG44 cells (stably transfected, secreted); conditions: clones from solid phase panning at pH 7.0
T1 sequence (P56817 46-460 limits assumed): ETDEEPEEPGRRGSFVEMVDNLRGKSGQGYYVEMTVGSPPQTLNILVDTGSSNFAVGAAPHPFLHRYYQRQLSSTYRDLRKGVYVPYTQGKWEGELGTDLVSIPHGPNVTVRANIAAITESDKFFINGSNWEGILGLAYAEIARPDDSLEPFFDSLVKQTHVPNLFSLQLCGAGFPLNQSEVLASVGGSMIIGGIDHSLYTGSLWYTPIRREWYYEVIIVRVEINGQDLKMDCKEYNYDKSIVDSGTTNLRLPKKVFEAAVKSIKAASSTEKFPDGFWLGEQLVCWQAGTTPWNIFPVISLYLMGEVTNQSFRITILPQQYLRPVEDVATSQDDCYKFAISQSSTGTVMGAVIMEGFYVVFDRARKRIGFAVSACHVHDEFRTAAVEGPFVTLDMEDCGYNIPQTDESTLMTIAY
Procedure: Two highly selected and homologous 12 mer phage peptides bound BACE specifically and reproducibly in phage-ELISA tests. Bristol-Myers Squibb fUSE5-based C4C, C6C, 5- and 15 mer libraries, and M13-based C7C libraries, and 7- and 12 mer libraries obtained from New England Biolabs, Beverly, Mass. were panned for three cycles against BACE (produced as described herein in Example 3). BACE was immobilized by coating at 0.5 μg/well in 4 wells of Dynex Immulon 4HBX plates overnight at 4° C. in 0.1M NaHCO3 buffer, pH 9.0. Panning was by standard procedures at room temperature that involved blocking wells with 2% BSA in PBS and elution with 0.1M HCL, pH 2.2. The vector NTI alignment tool and visual inspection of sequences were employed to analyze the selected peptides.
After sequencing approximately 20-50 clones from each library after three cycles of selection, we prepared essentially all possible candidate clones (39 clones in total) for phage-ELISA to obtain direct evidence for affinity to BACE. […] We therefore sequenced additional 12 mer clones to try to find additional candidate clones. […] This […] (SEQ ID NO:20) peptide is homologous to […] (SEQ ID NO:19) and consistent with the specific binding of both those peptides to BACE. The […] (SEQ ID NO:20) peptide and […] (SEQ ID NO:19) peptides were the two most efficiently recovered clones with 13 and 9 copies, respectively. […]

BACE [2] = target: T1, BACE; experiment: Competitive binding assay, displacement of labeled EBP from BACE, fluorescence anisotropy; design: The cDNA for the catalytic domain of human BACE (residues 1-460) was PCR-amplified; human IgG1 heavy chain (C, cleaved yes); thrombin cleavage site (C); made in house; host or cells: CHO DG44 cells (stably transfected, secreted); conditions: displacement of Molecule X, read-out: binding constant (Kd) of unlabeled peptide by competition
Procedure: The competitive binding assay was carried out at pH 7.1 (PBS buffer) or pH 4.5 (50 mM acetate buffer). The fluorescence anisotropy was measured at 25° C. in an AVIV fluorometer. The excitation and emission wavelengths were set to 495 and 519 nm, respectively. The excitation and emission slit widths were 4 and 10 nm, respectively.
The initial anisotropy value was measured. A concentrated unlabeled peptide or compound stock was titrated into the above solution of EBP and BACE. The final concentration of unlabeled peptide or compound ranges from 20 to 20000 nM. After each addition, the solution was mixed for 10 times with a pipettor. The fluorescence anisotropy was averaged over a 5 minute period.
The change in anisotropy was converted to fractional occupancy based on the r0 and rb obtained from the binding assay. The fractional occupancy was then plotted against the concentration of the competing peptide or compound. (see, for example, FIG. 6) The Kd of the competing ligand was calculated from curve fitting using the program […]™ (Synergy Software, Reading, Pa.). The equation used to fit the competition data is identical to equation 4 in Lai et al., (2000) Arch. Biochem. Biophys. 381:278-284.
The truncated unlabeled peptides were screened at a single concentration of 10 μM at pH 4.5. The anisotropy values detected with Molecule X in the absence of inhibitor, i.e., truncated unlabeled peptide (ra) and in the presence of the inhibitor (rb) and the labeled peptide alone (r0) were used to calculate the percent of inhibition: 100 (ra-rb)/(ra-r0). The percent of inhibition was compared among the truncated peptides.

phage ELISA binding to BACE (BACE [1]): specifically bind to BACE
Kd (BACE [2]; pH 4.5): 1070 nM
Kd (BACE [2]; pH 7.1): 84 nM
Substance: Ac-NLTTYPYFIPLP-OH [BMS-561871]
